Source: ChEMBL document CHEMBL5038569, “Targeting RECQL5 Functions, by a Small Molecule, Selectively Kills Breast Cancer in Vitro and in Vivo” (J Med Chem, 2021)
Calls of active or inactive are those of the source. The calls are words filed in the database; no cut-off is given here.

Legend:
Homo sapiens = species on record: Homo sapiens; experiment: Inhibition of full length His-tagged human RECQL5 expressed in Escherichia coli incubated for 15 mins by fluorescence based assay
MCF7 [1] = experiment: Cytotoxicity against RECQL5 knock out human MCF7 cells assessed as cell growth inhibition measured after 72 hrs by MTT assay; type: functional; details: dose 6-50 µM
MCF7 [2] = experiment: Cytotoxicity against human MCF7 cells expressing wild type RECQL5 assessed as cell growth inhibition measured after 72 hrs by MTT assay; type: functional; details: dose 6-50 µM

| inhibition (Homo sapiens) | SMILES | Activity (MCF7 [1]) | Activity (MCF7 [2]) |
| --- | --- | --- | --- |
| inactive | O=C(Nc1cc(C(F)(F)F)cc(C(F)(F)F)c1)N[C@@H](Cc1ccccc1)c1nnc(SCc2ccccc2)o1 | Dose-Dependent Effect | Dose-Dependent Effect |
| – | O=C(NCc1nnc(SCc2ccccc2)o1)Nc1cc(C(F)(F)F)cc(C(F)(F)F)c1 | Dose-Dependent Effect | Dose-Dependent Effect |
| – | COc1ccc(NC(=O)N[C@@H](Cc2ccccc2)c2nnc(SCc3ccccc3)o2)cc1 | Dose-Dependent Effect | Dose-Dependent Effect |
| – | O=C(Nc1ccc([N+](=O)[O-])cc1)N[C@@H](Cc1ccccc1)c1nnc(SCc2ccccc2)o1 | Dose-Dependent Effect | Dose-Dependent Effect |
| – | Cc1ccc(NC(=O)N[C@@H](Cc2ccccc2)c2nnc(SCc3ccccc3)o2)cc1 | Dose-Dependent Effect | Dose-Dependent Effect |
| – | O=C(Nc1ccc([N+](=O)[O-])cc1)N[C@@H](c1ccccc1)c1nnc(SCc2ccccc2)o1 | Dose-Dependent Effect | Dose-Dependent Effect |
| – | Cc1ccc(NC(=O)N[C@@H](c2ccccc2)c2nnc(SCc3ccccc3)o2)cc1 | Dose-Dependent Effect | Dose-Dependent Effect |
| – | COc1ccc(NC(=O)N[C@@H](c2ccccc2)c2nnc(SCc3ccccc3)o2)cc1 | inactive | inactive |
